Assay results reported in patent US20160297833A1, “THIENOPYRIMIDINES AS MKNK1 AND MKNK2 INHIBITORS” (BAYER PHARMA AKTIENGESELLSCHAFT, priority 2013, published 2016).

Biological target: T1, human full-length MKNK1 (Homo sapiens, UniProt Q9BUB5, T385D)
T1 construct: GST (N); purchased Carna Biosciences 02-145; host or cells: insect cells (baculovirus expression system)
Test: MKNK1 kinase high ATP assay (TR-FRET)
Format: biochemical
Conditions: for IC50: Table 1, MKNK1 kinase high ATP assay, 2 mM ATP, read-out: MKNK1 IC50; for Activity-Ratio MKNK1: Table 2, ratio of the IC50-value of an R-enantiomer and its corresponding S-enantiomer
Method: MKNK1 Kinase High ATP Assay
MKNK1-inhibitory activity at high ATP of compounds of the present invention after their preincubation with MKNK1 was quantified employing the TR-FRET-based MKNK1 high ATP assay as described in the following paragraphs.
As substrate for the kinase reaction the biotinylated peptide biotin-Ahx-[…] (C-terminus in amide form) was used, which can be purchased e.g. from the company Biosyntan (Berlin-Buch, Germany).
For the assay 50 nL of a 100 fold concentrated solution of the test compound in DMSO was pipetted into a black low volume 384 well microtiter plate (Greiner Bio-One, Frickenhausen, Germany), 2 μL of a solution of MKNK1 in aqueous assay buffer [50 mM HEPES pH 7.5, 5 mM MgCl2, 1.0 mM dithiothreitol, 0.005% (v/v) Nonidet-P40 (Sigma)] was added and the mixture was incubated for 15 min at 22° C. to allow pre-binding of the test compounds to the enzyme before the start of the kinase reaction. Then the kinase reaction was started by the addition of 3 μL of a solution of adenosine-tri-phosphate (ATP, 3.3 mM=>final conc. in the 5 μL assay volume is 2 mM) and substrate (0.1 μM=>final conc. in the 5 μL assay volume is 0.06 μM) in assay buffer and the resulting mixture was incubated for a reaction time of 30 min at 22° C. The concentration of MKNK1 was adjusted depending of the activity of the enzyme lot and was chosen appropriate to have the assay in the linear range, typical concentrations were in the range of 0.003 μg/mL. The reaction was stopped by the addition of 5 μL of a solution of TR-FRET detection reagents (5 nM streptavidine-XL665 [Cisbio Bioassays, Codolet, France] and 1 nM anti-ribosomal protein S6 (pSer236)-antibody from Invitrogen [#44921G] and 1 nM LANCE EU-W1024 labeled ProteinG [Perkin-Elmer, product no. AD0071]) in an aqueous EDTA-solution (100 mM EDTA, 0.1% (w/v) bovine serum albumin in 50 mM HEPES pH 7.5).
The resulting mixture was incubated for 1 h at 22° C. to allow the formation of complex between the phosphorylated biotinylated peptide and the detection reagents. Subsequently the amount of phosphorylated substrate was evaluated by measurement of the resonance energy transfer from the Eu-chelate to the streptavidine-XL. Therefore, the fluorescence emissions at 620 nm and 665 nm after excitation at 350 nm were measured in a TR-FRET reader, e.g. a Rubystar (BMG Labtechnologies, Offenburg, Germany) or a Viewlux (Perkin-Elmer). The ratio of the emissions at 665 nm and at 622 nm was taken as the measure for the amount of phosphorylated substrate.

T1 sequence (Q9BUB5 1-424 isoform Q9BUB5-2 T344D): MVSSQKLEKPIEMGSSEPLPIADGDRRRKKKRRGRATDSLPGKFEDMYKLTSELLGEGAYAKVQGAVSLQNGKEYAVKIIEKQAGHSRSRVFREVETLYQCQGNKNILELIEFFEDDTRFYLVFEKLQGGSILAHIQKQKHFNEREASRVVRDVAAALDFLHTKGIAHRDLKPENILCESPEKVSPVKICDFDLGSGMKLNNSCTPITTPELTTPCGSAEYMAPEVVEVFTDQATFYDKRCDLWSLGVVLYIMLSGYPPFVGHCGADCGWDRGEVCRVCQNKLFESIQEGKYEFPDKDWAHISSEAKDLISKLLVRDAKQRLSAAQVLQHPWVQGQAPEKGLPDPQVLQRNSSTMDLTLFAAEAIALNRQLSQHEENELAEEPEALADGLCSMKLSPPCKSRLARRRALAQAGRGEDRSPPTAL

| Compound | IC50 [nM] | Activity-Ratio MKNK1 |
| --- | --- | --- |
| COc1cc2[nH]ncc2cc1Nc1ncnc2sc3c(c12)CC[C@H](C(=O)N1CCCC1)C3 [Example 23, {(7S)-4-[(6-Methoxy-1H-indazol-5-yl)amino]-5,6,7,8-tetrahydro[1]benzothieno[2,3-d]pyrimidin-7-yl}(pyrrolidin-1-yl)methanone] | 0.5 |  |
| CCN(C)C(=O)[C@H]1CCc2c(sc3ncnc(Nc4cc5cn[nH]c5cc4OC)c23)C1 [Example 24, (7S)—N-Ethyl-4-[(6-methoxy-1H-indazol-5-yl)amino]-N-methyl-5,6,7,8-tetrahydro[1]benzothieno[2,3-d]pyrimidine-7-carboxamide] | 0.2 | 39.1 |
| CCN(C)C(=O)[C@@H]1CCc2c(sc3ncnc(Nc4cc5cn[nH]c5cc4OC)c23)C1 [Example 25, (7R)—N-Ethyl-4-[(6-methoxy-1H-indazol-5-yl)amino]-N-methyl-5,6,7,8-tetrahydro[1]benzothieno[2,3-d]pyrimidine-7-carboxamide] | 8.3 |  |
| COc1cc2[nH]ncc2cc1Nc1ncnc2sc3c(c12)CC[C@@H](C(=O)N(C)C(C)C)C3 [Example 27, (7R)-4-[(6-Methoxy-1H-indazol-5-yl)amino]-N-methyl-N-(propan-2-yl)-5,6,7,8-tetrahydro[1]benzothieno[2,3-d]pyrimidine-7-carboxamide] | 38.9 |  |
| COc1cc2[nH]ncc2cc1Nc1ncnc2sc3c(c12)CC[C@H](C(=O)N1CCOC[C@@H]1C)C3 [Example 30, {(7S)-4-[(6-Methoxy-1H-indazol-5-yl)amino]-5,6,7,8-tetrahydro[1]benzothieno[2,3-d]pyrimidin-7-yl}[(3S)-3-methylmorpholin-4-yl]methanone] | 0.3 |  |
| COc1cc2[nH]ncc2cc1Nc1ncnc2sc3c(c12)CC[C@H](C(=O)N1CC2(COC2)C1)C3 [Example 32, {(7S)-4-[(6-Methoxy-1H-indazol-5-yl)amino]-5,6,7,8-tetrahydro[1]benzothieno[2,3-d]pyrimidin-7-yl}(2-oxa-6-azaspiro[3.3]hept-6-yl)methanone] | 1 |  |
| COc1cc2[nH]ncc2cc1Nc1ncnc2sc3c(c12)CC[C@H](C(=O)N1C[C@@H]2C[C@H]1CO2)C3 [Example 33, {(7S)-4-[(6-Methoxy-1H-indazol-5-yl)amino]-5,6,7,8-tetrahydro[1]benzothieno[2,3-d]pyrimidin-7-yl}[(1S,4S)-2-oxa-5-azabicyclo[2.2.1]hept-5-yl]methanone] | 1.5 |  |
| COc1cc2[nH]ncc2cc1Nc1ncnc2sc3c(c12)CC[C@H](C(=O)N1C[C@H]2C[C@@H]1CO2)C3 [Example 34, {(7S)-4-[(6-Methoxy-1H-indazol-5-yl)amino]-5,6,7,8-tetrahydro[1]benzothieno[2,3-d]pyrimidin-7-yl}[(1R,4R)-2-oxa-5-azabicyclo[2.2.1]hept-5-yl]methanone] | 0.5 |  |
| COc1cc2[nH]ncc2cc1Nc1ncnc2sc3c(c12)CC[C@H](C(=O)N1CC(C#N)C1)C3 [Example 35, 1-({(7S)-4-[(6-Methoxy-1H-indazol-5-yl)amino]-5,6,7,8-tetrahydro[1]benzothieno[2,3-d]pyrimidin-7-yl}carbonyl)azetidine-3-carbonitrile] | 0.7 |  |
| COc1cc2[nH]ncc2cc1Nc1ncnc2sc3c(c12)CC[C@H](C(=O)N1CC(C)(O)C1)C3 [Example 36, (3-hydroxy-3-Methylazetidin-1-yl){(7S)-4-[(6-methoxy-1H-indazol-5-yl)amino]-5,6,7,8-tetrahydro[1]benzothieno[2,3-d]pyrimidin-7-yl}methanone] | 0.5 |  |
| COc1cc2[nH]ncc2cc1Nc1ncnc2sc3c(c12)CC[C@H](C(=O)N(CCO)C1COC1)C3 [Example 37, (7S)—N-(2-Hydroxyethyl)-4-[(6-methoxy-1H-indazol-5-yl)amino]-N-(oxetan-3-yl)-5,6,7,8-tetrahydro[1]benzothieno[2,3-d]pyrimidine-7-carboxamide] | 0.3 |  |
| COc1cc2[nH]ncc2cc1Nc1ncnc2sc3c(c12)CC[C@H](C(=O)N(C)CCO)C3 [Example 38, (7S)—N-(2-Hydroxyethyl)-4-[(6-methoxy-1H-indazol-5-yl)amino]-N-methyl-5,6,7,8-tetrahydro[1]benzothieno[2,3-d]pyrimidine-7-carboxamide] | 0.3 | 28.1 |
| CCN(CCO)C(=O)[C@@H]1CCc2c(sc3ncnc(Nc4cc5cn[nH]c5cc4OC)c23)C1 [Example 41, (7R)—N-Ethyl-N-(2-hydroxyethyl)-4-[(6-methoxy-1H-indazol-5-yl)amino]-5,6,7,8-tetrahydro[1]benzothieno[2,3-d]pyrimidine-7-carboxamide] | 10.5 |  |
| COCCN(CCO)C(=O)[C@H]1CCc2c(sc3ncnc(Nc4cc5cn[nH]c5cc4OC)c23)C1 [Example 42, (7S)—N-(2-Hydroxyethyl)-N-(2-methoxyethyl)-4-[(6-methoxy-1H-indazol-5-yl)amino]-5,6,7,8-tetrahydro[1]benzothieno[2,3-d]pyrimidine-7-carboxamide] | 0.3 | 33.2 |
| COc1cc2[nH]ncc2cc1Nc1ncnc2sc3c(c12)CC[C@H](C(=O)N1CC(N(C)C)C1)C3 [Example 44, [3-(Dimethylamino)azetidin-1-yl]{(7S)-4-[(6-methoxy-1H-indazol-5-yl)amino]-5,6,7,8-tetrahydro[1]benzothieno[2,3-d]pyrimidin-7-yl}methanone] | 0.2 |  |

Next, values leading:

| IC50 [nM] | Activity-Ratio MKNK1 | Compound |
| --- | --- | --- |
| 21.4 |  | COc1cc2[nH]ncc2cc1Nc1ncnc2sc3c(c12)CC[C@@H](C(=O)N1CCC1)C3 [Example 22, Azetidin-1-yl{(7R)-4-[(6-methoxy-1H-indazol-5-yl)amino]-5,6,7,8-tetrahydro[1]benzothieno[2,3-d]pyrimidin-7-yl}methanone] |
| 0.2 | 172.9 | COc1cc2[nH]ncc2cc1Nc1ncnc2sc3c(c12)CC[C@H](C(=O)N(C)C(C)C)C3 [Example 26, (7S)-4-[(6-Methoxy-1H-indazol-5-yl)amino]-N-methyl-N-(propan-2-yl)-5,6,7,8-tetrahydro[1]benzothieno[2,3-d]pyrimidine-7-carboxamide] |
| 0.3 | 26.1 | COc1cc2[nH]ncc2cc1Nc1ncnc2sc3c(c12)CC[C@H](C(=O)N1CCOCC1)C3 [Example 28, {(7S)-4-[(6-Methoxy-1H-indazol-5-yl)amino]-5,6,7,8-tetrahydro[1]benzothieno[2,3-d]pyrimidin-7-yl}(morpholin-4-yl)methanone] |
| 8.7 |  | COc1cc2[nH]ncc2cc1Nc1ncnc2sc3c(c12)CC[C@@H](C(=O)N1CCOCC1)C3 [Example 29, {(7R)-4-[(6-Methoxy-1H-indazol-5-yl)amino]-5,6,7,8-tetrahydro[1]benzothieno[2,3-d]pyrimidin-7-yl}(morpholin-4-yl)methanone] |
| 0.8 |  | COc1cc2[nH]ncc2cc1Nc1ncnc2sc3c(c12)CC[C@H](C(=O)N1CCOC[C@H]1C)C3 [Example 31, {(7S)-4-[(6-Methoxy-1H-indazol-5-yl)amino]-5,6,7,8-tetrahydro[1]benzothieno[2,3-d]pyrimidin-7-yl}[(3R)-3-methylmorpholin-4-yl]methanone] |
| 9.4 |  | COc1cc2[nH]ncc2cc1Nc1ncnc2sc3c(c12)CC[C@@H](C(=O)N(C)CCO)C3 [Example 39, (7R)—N-(2-Hydroxyethyl)-4-[(6-methoxy-1H-indazol-5-yl)amino]-N-methyl-5,6,7,8-tetrahydro[1]benzothieno[2,3-d]pyrimidine-7-carboxamide] |
| 0.2 | 45.9 | CCN(CCO)C(=O)[C@H]1CCc2c(sc3ncnc(Nc4cc5cn[nH]c5cc4OC)c23)C1 [Example 40, (7S)—N-Ethyl-N-(2-hydroxyethyl)-4-[(6-methoxy-1H-indazol-5-yl)amino]-5,6,7,8-tetrahydro[1]benzothieno[2,3-d]pyrimidine-7-carboxamide] |
| 8.9 |  | COCCN(CCO)C(=O)[C@@H]1CCc2c(sc3ncnc(Nc4cc5cn[nH]c5cc4OC)c23)C1 [Example 43, (7R)—N-(2-Hydroxyethyl)-N-(2-methoxyethyl)-4-[(6-methoxy-1H-indazol-5-yl)amino]-5,6,7,8-tetrahydro[1]benzothieno[2,3-d]pyrimidine-7-carboxamide] |
